Laboratory results taken from patent US6706709B2, “Indolinone derivatives as protein kinase/phosphatase inhibitors” (Sugen, Inc., priority 2000, dated 2004).

Experiments:
GST-Flk1 = GST-Flk1 (UniProt P35918); experiment: GST-FLK-1 bioassay (bio flkGST); assay type: biochemical
Procedure, shortened: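 ELISA with Sf9-expressed GST-Flk1cd (5 ng/well) phosphorylating plate-coated poly(Glu,Tyr) 4:1 in Hepes pH 7.5 with MnCl2 and ATP (2 μM as 4× stock), 15 min at room temperature; EDTA stop. Phosphotyrosine detected with PY99-HRP and ABTS at 410 nm.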

EGF Receptor = target: T1, EGF Receptor (Homo sapiens, UniProt P00533); experiment: bio EGF (EGF Receptor ELISA); assay type: biochemical
T1 construct: expressed in transfected cells; host or cells: NIH 3T3/C7 (mouse fibroblasts engineered to express human EGF-R)
Procedure, shortened: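 Cells engineered to express human EGFR, seeded in 0.5% serum for ~40 h, then exposed to drug (stock diluted to 1:200 final, 1% DMSO) before 5 min EGF stimulation at 25 nM final. Lysates captured on anti-EGFR-coated plates, and phosphotyrosine detected by anti-pTyr/HRP ELISA at 410 nm. Percent inhibition calculated relative to control wells after negative-control subtraction.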

T1 sequence (P00533 25-1210): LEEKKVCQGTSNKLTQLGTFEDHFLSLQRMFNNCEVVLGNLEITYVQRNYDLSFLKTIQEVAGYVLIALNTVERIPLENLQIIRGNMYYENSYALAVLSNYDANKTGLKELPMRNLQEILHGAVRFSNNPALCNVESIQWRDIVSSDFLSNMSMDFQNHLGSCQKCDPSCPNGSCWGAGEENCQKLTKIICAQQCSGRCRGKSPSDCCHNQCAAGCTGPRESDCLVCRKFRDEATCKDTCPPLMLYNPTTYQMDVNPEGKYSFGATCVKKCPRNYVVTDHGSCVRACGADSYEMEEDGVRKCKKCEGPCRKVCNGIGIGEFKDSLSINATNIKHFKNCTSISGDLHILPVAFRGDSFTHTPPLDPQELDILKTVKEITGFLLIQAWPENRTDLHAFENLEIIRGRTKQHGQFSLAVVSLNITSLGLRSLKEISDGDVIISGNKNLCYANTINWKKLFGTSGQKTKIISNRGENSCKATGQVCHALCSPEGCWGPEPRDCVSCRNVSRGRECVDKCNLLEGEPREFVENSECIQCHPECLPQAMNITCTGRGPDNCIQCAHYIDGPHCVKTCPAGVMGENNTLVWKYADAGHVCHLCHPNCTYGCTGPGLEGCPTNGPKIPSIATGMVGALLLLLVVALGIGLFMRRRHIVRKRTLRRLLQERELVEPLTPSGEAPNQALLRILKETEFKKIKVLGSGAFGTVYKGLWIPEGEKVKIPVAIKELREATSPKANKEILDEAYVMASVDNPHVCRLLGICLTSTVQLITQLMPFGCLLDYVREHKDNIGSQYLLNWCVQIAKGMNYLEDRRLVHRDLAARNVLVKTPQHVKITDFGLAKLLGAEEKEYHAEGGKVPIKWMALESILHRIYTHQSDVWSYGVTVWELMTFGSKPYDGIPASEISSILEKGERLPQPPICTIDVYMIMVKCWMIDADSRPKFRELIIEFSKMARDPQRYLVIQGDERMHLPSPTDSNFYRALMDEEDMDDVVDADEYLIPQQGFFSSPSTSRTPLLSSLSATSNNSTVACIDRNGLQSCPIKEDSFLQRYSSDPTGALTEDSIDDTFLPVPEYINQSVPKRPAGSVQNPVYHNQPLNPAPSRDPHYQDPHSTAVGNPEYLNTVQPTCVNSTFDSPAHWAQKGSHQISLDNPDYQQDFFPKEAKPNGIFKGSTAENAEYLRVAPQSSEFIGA

Question: Which IC50 (GST-Flk1) does the source give for CN(C)S(=O)(=O)c1ccc2c(c1)C(=Cc1cc3ccccc3[nH]1)C(=O)N2 [IN-075, 3-(1H-indol-2-ylmethylene)-2-oxo-2,3-dihydro-1H-indole-5-sulfonic acid dimethylamide] here?
Answer: 6.51 µM

Question: What about the IC50 (EGF Receptor) of the same compound?
Answer: > 100 µM
